Earlier results on one compound are cited in US20020048798A1, “Novel antioxidants” (priority 2000, published 2002).

For the data set the following is noted: factor relative to the racemate of α-lipoic acid.

As to `O=C(O)CCCC[C@@H]1CCSS1` [R-α-lipoic acid], the “anti-inflammatory activity, stronger by a factor than that of the racemate” value is reported as 10.
